{"source": "patent US6852341B2", "about": "(priority 2000, dated 2005)", "key": {"microbivorous nematodes": {"tested_on": "microbivorous nematodes", "conditions": "1-5 mgs KN3 per kg of soil, one week after application", "method": "(§1) The liquid potassium azide compound was added to the soil in an aqueous solution of amounts of: 1, 2, 3, 4 and 5 mgs KN3 per kg of soil. The formulation used for this experiment 1% KN3 and 0.5% sodium lauryl sulfate. Soil samples were collected one week after the application of the KN3 solution for nematological analysis using such techniques as the salad bowl incubation technique."}, "reniform nematode": {"tested_on": "reniform nematode", "method": "as §1"}, "\"Young\" soybean": {"tested_on": "\"Young\" soybean", "conditions": "range 1-8 mgs/Kg soil; sharpest increases at 1 and 2 mgs rates; soybean grown 7 weeks", "method": "(§2) In this example, the soil used was from a cotton field infested with the root-knot [Meloidogyne incognita], and lance [Hoplolaimus galeatus], nematodes—each a plant parasitic specie. The soil was mixed with washed siliceous river sand (in equal parts by volume), apportioned into one kg amounts in 4 L plastic bags and placed in pots. The test solution was prepared by dissolving 0.500 gms KN3 in an aqueous solution containing 50 mls of a 10% casein [w/v] solution in 0.1N NaOH and diluting with water to a final volume of 500 mls; the solution thus contained 1 mg KN3/ml. The solution was added to soil at rates of 1, 2, 4, 6, 8, and 10 mls/Kg soil. There were for each treatment and controls [no solution], a total of 7 pots each containing 1 Kg of soil. After application of the solution, for each rate, each pot was covered with a plastic bag. The pots were placed on a greenhouse bench and were arranged in a randomized block design. After 10 days the covers were removed, soil samples were collected from each pot for nematological analyses and “Young” soybean were planted [5 seed/pot]. The resulting plants were allowed to grow for 7 weeks when they were carefully separated from the soil and growth parameters measured. The roots and final soil samples were incubated to determine nematode populations. Nematode numbers in soil and roots were determined using the salad bowl incubation technique."}, "[1]": {"tested_on": "beneficial microbivorous nematodes", "method": "as §2"}, "lance nematode": {"tested_on": "lance nematode", "conditions": "applications of ≧2 mgs KN3/Kg soil, 10 days after application", "method": "as §2"}, "root-knot nematode [2]": {"tested_on": "root-knot nematode", "conditions": "applications of ≧2 mgs KN3/Kg soil, 10 days after application", "method": "as §2"}, "weeds [3]": {"tested_on": "weeds"}, "'Black Beauty' eggplant": {"tested_on": "'Black Beauty' eggplant", "conditions": "eggplant grown 2 months; rates 0-5.0 g/plot", "source_text": "(§3) The square microplots of 1 ft^2 [929 cm^2] and 2 feet [61 cms] deep having an open-bottom were used. Each microplot was delimited by a terra-cotta chimney flue. The soil filling the plot was a sandy loam [pH=6.2; organic matter content <1.0%; C.E.C <10 meq/100 g soil] and was infested with the nematodes: Meloidogyne incognita [root-knot], Paratrichodorus minor [stubby root], Tylenchorhynchus claytoni [stunt], and Helicotylenchus dihystera [spiral]. Weeds introduced into the plots were principally crabgrass [Digitaria sanguinalis], yellow nutsedge [Cyperus esculentum], pigweed [Amaranthus spp.], and morning glories [Ipomea spp., Jacquemontia tamnifolia].\n(§4) The plots were covered with standard polyethylene [1 mil] and after 10 days the cover was removed, the number of weeds was determined, soil samples for nematological analyses were taken and each plot was planted with two 3-week old ‘Black Beauty’ eggplant [Solanum melongena] seedlings. The plants were grown for 2 months and data were collected on yield, weed infestation and nematode populations."}, "[4]": {"tested_on": "plant parasitic nematodes", "source_text": "as §3, §4"}, "weeds [5]": {"tested_on": "weeds", "source_text": "as §3, §4", "remark": "listed apart in the source"}, "\"Rowden\" cotton": {"tested_on": "\"Rowden\" cotton", "method": "(§5) The aqueous formulation was a solution containing 1% [w/v] […] After thorough mixing, the contents of a bag were poured into 1 L capacity, 10-cm-diam cylindrical plastic pots which were then covered with standard polyethylene [[…]]. Each rate and the no treatment control was represented by 7 replications [pots] arranged in a randomized complete block design. Ten days after application of the chemical solution, the pots were uncovered and 5 seed of “Rowden” cotton [Gossypium hirsutum] were planted in each pot. The resulting plants were grown for 8 weeks. When the plants were removed after 8 weeks, soil samples were collected for nematological analyses. The shoots and roots of the plants were weighed and the root systems were examined and indexed for disease severity symptoms. Following examination, the roots were incubated to determine nematode populations."}, "[6]": {"tested_on": "plant parasitic nematodes (cotton wilt complex Fusarium oxysporum f sp. vasinfectum×Meloidogyne incognita)", "conditions": "all NaN3 dosages, 10-100 mgs a.i./kg soil; 8 weeks after planting", "method": "as §5"}, "[7]": {"tested_on": "plant parasitic nematodes", "assay": "Microplot experiment, amine-protein stabilized NaN3, nematode control (Example 3)", "type": "in vivo", "source_text": "(§6) The formulation contained 5% [w/v] […] Soil in the microplots was a sandy loam [pH=6.2; organic matter content <1.0%; C.E.C <10 meq/100 g soil] infested with the nematodes: Meloidogyne incognita, Paratrichodorus minor, Tylenchorhynchus claytoni, and Helicotylenchus dihystera 1]. Weeds in the plots were principally crabgrass [Digitaria sanguinalis], yellow nutsedge [Cyperus esculentum], pigweed [Amaranthus spp.], and morning glories [Ipomea spp., Jacquemontia tamnifolia].\n(§7) The plots were covered with standard polyethylene [1 mil] tarp immediately after application of the chemical. After 10 days the cover was removed, the number of weeds was determined, soil samples for nematological analyses were taken and each plot was planted with two 4-week old ‘Huskie’ tomato seedlings. The plants were grown for 3 months and data were collected on yield, number of fruits, weed infestation and nematode populations."}, "weeds [8]": {"tested_on": "weeds", "assay": "Microplot experiment, amine-protein stabilized NaN3, weed control (Example 3)", "type": "in vivo", "conditions": "all but the three lowest rates of NaN3", "source_text": "as §6, §7"}, "'Huskie' tomato": {"tested_on": "'Huskie' tomato", "conditions": "tomato grown 3 months", "source_text": "as §6, §7"}, "[9]": {"tested_on": "coastal bermuda grass, yellow nutsedge and other weeds", "source_text": "(§8) The soil was a calcareous silty clay loam with pH 7.8 and <1% organic matter. […] Each dosage rate was delivered into pre-acidified soil as well as in non-acidified and administered using 3 different water levels: 3, 10, and 15 L/m^2. Acidification was with H2SO4 to lower soil pH to less than 7.00. […] After 3 weeks the soil was uncovered and a soil sample was removed for nematological analyses and the weeds were counted."}, "root-knot nematode [10]": {"tested_on": "root-knot nematode", "conditions": "dosages of 100 and 200 kg/ha, 3 weeks after application", "source_text": "as §8"}, "pepper or tomato plants": {"tested_on": "pepper or tomato plants", "conditions": "seedlings transplanted 6 weeks after NaN3 application, 100 and 200 kg/ha"}, "[11]": {"conditions": "plots treated with ≦2.0 g NaN3 rates"}, "[12]": {"conditions": "three highest rates (3.0, 4.0, 5.0 g/plot)"}}, "note": "Read-outs that look alike come from different tables or passages of the source.", "data": [{"molecule": "[K+].[N-]=[N+]=[N-]", "note": "[KN3, potassium azide]", "values": [{"measurement": "numbers of microbivorous nematodes in response to increasing KN3", "setting": "microbivorous nematodes", "result": "declined in an almost linear fashion"}, {"measurement": "numbers of reniform nematode in response to increasing KN3", "setting": "reniform nematode; 1-5 mgs KN3 per kg of soil, one week after application", "result": "declined exponentially"}, {"measurement": "control of the reniform nematodes", "setting": "reniform nematode; rates of 4-5 mg of KN3 per kg of soil", "result": "~100", "unit": "%"}, {"measurement": "plant response as measured by the weights of shoots and roots", "setting": "\"Young\" soybean", "result": "positive and pronounced"}, {"measurement": "numbers of beneficial microbivorous nematodes", "setting": "[1]; 1 and 2 mg application rates", "result": "pronounced stimulation"}, {"measurement": "populations of beneficial microbivorous nematodes", "setting": "[1]; application rates <6 KN3/Kg, final soil", "result": "not adversely affected"}, {"measurement": "application rate necessary to significantly reduce or eliminate microbivorous nematodes", "setting": "[1]; in vivo", "result": "> 4", "unit": "mgs/Kg soils"}, {"measurement": "lance nematode population in the preplant sample", "setting": "lance nematode", "result": "eliminated"}, {"measurement": "root-knot nematode population in the preplant sample", "setting": "root-knot nematode [2]", "result": "eliminated"}, {"measurement": "number of weeds", "setting": "weeds [3]; KN3 rates of 20-200 mg/kg of soil", "result": "declining in proportion to rates used"}, {"measurement": "control rates for weeds", "setting": "weeds [3]; rates of greater than 140 mg/kg of soil", "result": "over 80%"}]}, {"molecule": "[N-]=[N+]=[N-].[Na+]", "note": "[NaN3, sodium azide]", "values": [{"measurement": "yield and number of fruits", "setting": "'Black Beauty' eggplant", "result": "increased directly in response to NaN3 rates from 0-1.5 g/plot and leveled out"}, {"measurement": "nematodes in planting time soil samples", "setting": "[4]; 10 days after drench, plots treated with 0.5-5.0 g sodium azide/plot, control plots infested with all species", "result": "no nematodes"}, {"measurement": "plant parasitic nematodes at the end of the experiment", "setting": "[4]; [11]", "result": "significant populations"}, {"measurement": "plant parasitic nematodes at the end of the experiment", "setting": "[4]; [12]", "result": "no plant parasitic nematodes"}, {"measurement": "weeds at planting", "setting": "weeds [5]; 10 days after drench, all but the two lowest rates of NaN3", "result": "no weeds"}, {"measurement": "weeds at the end of the experiment", "setting": "weeds [5]; [11]", "result": "significant populations"}, {"measurement": "weed infestation at the end of the experiment", "setting": "weeds [5]; [12]", "result": "no significant weed infestation"}, {"measurement": "weights of shoots and roots", "setting": "\"Rowden\" cotton; NaN3 rates 10-60 mgs/kg soil", "result": "Sharp increases"}, {"measurement": "weights of shoots and roots", "setting": "\"Rowden\" cotton; NaN3 rates ≧70 mgs/kg soil", "result": "no additional weight increments"}, {"measurement": "cotton root health [root condition index]", "setting": "\"Rowden\" cotton; all NaN3 dosages, 10-100 mgs/kg soil", "result": "markedly improved"}, {"measurement": "plant parasitic nematodes in soil and roots", "setting": "[6]", "result": "eliminated from the soil and roots"}, {"measurement": "nematodes in soil samples at planting", "setting": "[7]; 10 days after drench, 0.5-5.0 g/plot, controls had significant numbers of all species", "result": "did not contain nematodes"}, {"measurement": "plant parasitic nematodes at the end of the experiment", "setting": "[7]; all rates of application", "result": "no plant parasitic nematodes"}, {"measurement": "weeds at planting time", "setting": "weeds [8]", "result": "no weeds"}, {"measurement": "yield and number of fruits", "setting": "'Huskie' tomato", "result": "increased directly in response to NaN3 rates from 0-4 g/plot"}, {"measurement": "effectiveness against nutsedge", "setting": "[9]; 100 and 200 kg/ha", "result": "particularly effective"}, {"measurement": "weeds controlled", "setting": "[9]; dosages of 100 and 200 kg/ha, 3 weeks after application", "result": "all weeds"}, {"measurement": "nematodes controlled", "setting": "root-knot nematode [10]", "result": "greater than 90%"}, {"measurement": "phytotoxicity to pepper or tomato plants", "setting": "pepper or tomato plants", "result": "no evidence of phytotoxicity"}]}]}
